Data published in PMC3532304, “Piperidinols That Show Anti-Tubercular Activity as Inhibitors of Arylamine N-Acetyltransferase: An Essential Enzyme for Mycobacterial Survival Inside Macrophages” (PLoS ONE, 2012).
In brackets after ≈: the same amount, converted by molar mass. Several values for one entry are separate records, joined by “and”; a condition that tells them apart may be missing. Identical values can stand only once. Like-named read-outs stand apart in the source and are kept apart here.

What was measured:
M. tuberculosis H37Rv = assay: Mycobacterial growth inhibition in vitro (spot culture on solid medium); format: cell-based; conditions: for MIC M. tuberculosis: H37Rv, solid 7H10-OADC medium, no growth after 2 weeks; for MIC: Mycobacterium tuberculosis, H37RV, 336 h, read-out: MIC M. tuberculosis
MMNAT [1] = biological target: T1, MMNAT (Mycobacterium marinum, UniProt B2HIZ6); assay: NAT-inhibition assay (Ac-CoA hydrolysis with hydralazine, Ellman's reagent); format: biochemical, M. marinum; conditions: for IC50: mean ± S.D.; for inhibition at 50 µM: read-out: MMNAT % Inhibition
Method: (§1) An assay for measuring the formation of CoA was used to determine the activity of the enzyme in the presence of potential inhibitors. All the tested compounds were dissolved in dimethylsulphoxide (DMSO) and all reactions were carried out in the presence of 5% (v/v) DMSO. The enzyme (100–150 ng) was mixed with the inhibitors 1–5 (5 µL at a final concentration of 0–250 µM) and incubated for 15 min at 24°C prior to starting the reaction by adding 15 µL hydralazine and 12 µL Ac-CoA at final concentrations of 150 µM and 120 µM respectively, in a final total volume of 100 µL of 20 mM Tris-HCl pH 8. The assay was performed as an end-point read out measurement by stopping the reaction after 10 min at 24°C using 25 µL Ellman's reagent (5 mM 5,5′-dithiobis-(2-nitrobenzoate) solution in 6.4 M guanidine-HCl and 100 mM Tris-HCl, pH 7.3). The absorbance was measured at a wavelength of 405 nm within 2 min (Tecan Sunrise Plate Reader). The assays were repeated using a 10-fold enzyme concentration to exclude promiscuous non-specific inhibitors. The activity of the enzyme in the presence of 5% (v/v) DMSO was measured as a control. Inhibition values were determined as the ratio of the enzyme activity (expressed as the rate of CoA formation per microgram protein (µM/min.µg)) with the requisite compound, to the activity of the control without inhibitor. IC50 values were determined from the inhibition curves which were obtained by non-linear fitting of the % inhibition and the inhibitor concentration (µM) using the Log(inhibitor) vs. response module of GraphPad Prism 5.0.

MMNAT [2] = biological target: T1, MMNAT; assay: ESI-MS analysis of covalent enzyme-inhibitor adducts; format: binding, M. marinum; conditions: enzyme-to-inhibitor ratio 1∶1; for Δm of enzyme-inhibitor adduct (MMNAT): 24°C, 30–60 min; for Molar ratio (inhibitor/protein) (MMNAT): proposed number of inhibition species bound per protein molecule
Method: ESI-MS was performed as described previously. A sample of 2.5 mg/mL (80 µM) MMNAT was analyzed on a Micromass LCT mass spectrometer. The samples were pretreated with DMSO or 0.08–1.2 mM inhibitor dissolved in DMSO to a final percentage of 5% (v/v) DMSO and incubated for 30–60 min before analysis. ESI-MS analysis was performed in positive ion mode after denaturation in 50% v/v acetonitrile in water with an accuracy of ±0.1%. The sample was run over a desalting column prior to MS analysis.

MMNAT [3] = biological target: T1, MMNAT; assay: Time-dependent inhibition assay (Kitz and Wilson model); format: biochemical, M. marinum; conditions: 24°C
Method: The time course of the inhibition of NAT by the piperidinols was evaluated according to the Kitz and Wilson model. Irreversible inhibition, progressive with time, was measured for the piperidinol inhibitors (1–5) by the protocol described in Figure S2, and the values of the apparent first order constant (kobs) were determined (Table 1). Dilution rather than dialysis was used in this protocol due to the likely loss of activity upon dialysis (Figure 3). […] Examples of the curves obtained for enzyme activity against incubation time upon inhibition of MMNAT and TBNAT by the piperidinols are shown in Figure 4.
For the determination of the time dependence of interaction between enzymes and inhibitors, the inhibitor was diluted to less than 1% concentration. Incubation mixtures (20 µL) contained 0.06 mM MMNAT or TBNAT in 20 mM Tris-HCl, pH 8 and 5% (v/v) DMSO and variable concentrations of the inhibitors (0–50 µM) were prepared using the protocol described in Figure S1. Aliquots of 1 µL were removed from the reaction mixture at different time points (incubation-time) and diluted to 100 µL using the assay buffer containing HLZ and Ac-CoA to the final concentrations of 150 µM and 120 µM, respectively. The rate of Ac-CoA hydrolysis was measured over a three-minute time period. The reaction was stopped with 25 µL Ellman's reagent in 6.4 M guanidine and the absorbance was measured at a wavelength of 405 nm. The residual activity was measured as a percentage of a control prepared as described in Figure S1 and plotted against the incubation-time. The data were fitted using the Semilog line (X is linear, Y is Log) module of GraphPad Prism 5.0. The slope of each line is equivalent to (−kobs/2.303) at each inhibitor concentration.The controls in which no enzyme was present using CoA and Ellman's reagent gave the same results whether compound 1 was present or not.

TBNAT [4] = biological target: T2, TBNAT (Mycobacterium tuberculosis, UniProt P9WJI5); assay: NAT-inhibition assay (Ac-CoA hydrolysis with hydralazine, Ellman's reagent); format: biochemical, M. tuberculosis; conditions: for IC50: mean ± S.D.; for inhibition at 50 µM: read-out: TBNAT % Inhibition
T2 construct: made in house
Method: as §1

M. bovis BCG = assay: microbe, parasite or virus in culture; format: cell-based; conditions: for MIC M. bovis BCG: solid 7H10-OADC medium, no growth after 2 weeks; for MIC: Mycobacterium tuberculosis variant bovis BCG, BCG, 336 h, read-out: MIC M. bovis BCG
[5] = set-up: method as in PMID 16032973; conditions: cited from earlier work
TBNAT [6] = biological target: T2, TBNAT; assay: ESI-MS analysis of covalent enzyme-inhibitor adducts; format: binding, M. tuberculosis
human NAT1 = biological target: T3, human NAT1 (Homo sapiens, UniProt P18440); assay: Specificity panel of recombinant NAT enzymes (Ac-CoA hydrolysis with 5ASA); format: biochemical; conditions: 30 µM
T3 construct: made in house
T3 sequence (P18440 1-290): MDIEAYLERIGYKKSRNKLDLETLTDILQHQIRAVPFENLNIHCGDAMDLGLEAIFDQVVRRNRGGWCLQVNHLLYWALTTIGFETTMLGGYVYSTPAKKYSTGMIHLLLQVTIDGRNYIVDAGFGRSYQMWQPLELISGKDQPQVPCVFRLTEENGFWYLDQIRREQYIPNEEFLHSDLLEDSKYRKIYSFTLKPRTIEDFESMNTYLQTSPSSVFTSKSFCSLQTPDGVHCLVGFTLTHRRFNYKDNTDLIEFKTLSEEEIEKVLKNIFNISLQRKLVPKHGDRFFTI
Method: (§2) Figure 2 Specificity of compound 1 for prokaryotic NAT enzymes. Compound 1 was tested at 30 µM against pure recombinant NAT enzymes from M. smegmatis (MSNAT), P. aeruginosa (PANAT), S. typhimurium (STNAT), MMNAT and TBNAT, and also against two eukaryotic enzymes, hamster NAT2 (shNAT2) and human NAT1. The results are shown as the mean ± S.D. of triplicate determinations of the percentage inhibition of hydrolysis of Ac-CoA in the presence of 5-aminosalicylic acid (5ASA) and against TBNAT using hydralazine as a substrate. The inhibition is represented as a percentage compared to an uninhibited control from triplicate measurements. The structure of compound 1 is shown and the piperidinol nucleus is highlighted by the shaded area.

hamster NAT2 (shNAT2) = biological target: T4, hamster NAT2 (shNAT2) (Mesocricetus auratus, UniProt P50293); assay: as above; format: biochemical; conditions: 30 µM
T4 construct: made in house
T4 sequence (P50293 1-290): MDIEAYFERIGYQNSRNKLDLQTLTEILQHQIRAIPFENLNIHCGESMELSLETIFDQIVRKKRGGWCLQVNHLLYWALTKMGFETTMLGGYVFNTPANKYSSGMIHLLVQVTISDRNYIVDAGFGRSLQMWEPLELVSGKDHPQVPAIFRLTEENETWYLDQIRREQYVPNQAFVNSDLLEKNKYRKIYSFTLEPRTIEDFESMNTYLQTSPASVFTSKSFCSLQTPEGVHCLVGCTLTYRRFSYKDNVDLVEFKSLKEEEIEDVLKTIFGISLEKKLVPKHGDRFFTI
Method: as §2

M. tuberculosis = tested on: M. tuberculosis; set-up: method as in PMID 13402115; conditions: cited from earlier work
TBNAT [7] = biological target: T2, TBNAT; assay: Reversibility of inhibition by dialysis; format: biochemical, M. tuberculosis; conditions: 15-fold molar excess, 1 h at 24°C, dialysis 16 h at 4°C
Method: (§3) Figure 3 Reversibility of the inhibition of TBNAT and MMNAT by compound 1. Each enzyme (MMNAT, TBNAT, 0.07 mM, 50 µL) was preincubated either alone or with 15-fold molar excess 1 at 24°C for 1 h. Each sample was then dialysed against 1 L fresh assay buffer (20 mM Tris-HCl pH 8) at 4°C for 16 h. The enzyme activities of the samples were measured before dialysis and then measured after dialysis by measuring the rate of Ac-CoA hydrolysis in the presence of HLZ as described in Methods. The mean ± S.D. of three measurements of the activity is shown. Loss of enzyme activity upon dialysis is likely to be due to the oxidation of the active site sulfhydryl group, especially since dialysis was performed in the absence of dithiothreitol.
(§4) For the reversibility studies, excess inhibitor was […] by dialysis. Each enzyme (0.07 mM MMNAT or TBNAT in 20 mM Tris-HCl pH 8 and 5% (v/v) DMSO) was preincubated either alone or with 15-fold molar excess of compound 1 in a final volume of 50 µL at 24°C for 1 h. Each sample was then dialysed against 1 L fresh assay buffer (20 mM Tris-HCl pH 8) at 4°C for 16 h. The enzyme activities of the samples were measured before dialysis and then measured after dialysis by measuring the rate of Ac-CoA (120 µM) hydrolysis in the presence of 150 µM HLZ.

MMNAT [8] = biological target: T1, MMNAT; assay: Reversibility of inhibition by dialysis; format: biochemical, M. marinum; conditions: 15-fold molar excess, 1 h at 24°C, dialysis 16 h at 4°C
Method: as §3, §4

NAT = assay: Inhibition of NAT activity by PVK; format: biochemical; conditions: within 10 minutes, at less than 1 µM
[9] = 50 µM inhibitor, 150 µM HLZ, 120 µM Ac-CoA, 24°C, mean ± S.D. of triplicate
[10] = 150 µM HLZ, 120 µM Ac-CoA, 24°C

T2 sequence (P9WJI5 whole entry): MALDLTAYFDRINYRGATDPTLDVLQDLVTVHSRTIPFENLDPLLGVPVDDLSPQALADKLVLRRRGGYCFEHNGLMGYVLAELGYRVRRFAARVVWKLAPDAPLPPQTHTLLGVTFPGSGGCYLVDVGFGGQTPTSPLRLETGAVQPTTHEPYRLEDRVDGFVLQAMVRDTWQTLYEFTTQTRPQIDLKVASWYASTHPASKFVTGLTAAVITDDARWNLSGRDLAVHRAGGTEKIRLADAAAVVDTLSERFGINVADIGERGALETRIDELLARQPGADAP
T1 sequence (B2HIZ6 entry or part of it): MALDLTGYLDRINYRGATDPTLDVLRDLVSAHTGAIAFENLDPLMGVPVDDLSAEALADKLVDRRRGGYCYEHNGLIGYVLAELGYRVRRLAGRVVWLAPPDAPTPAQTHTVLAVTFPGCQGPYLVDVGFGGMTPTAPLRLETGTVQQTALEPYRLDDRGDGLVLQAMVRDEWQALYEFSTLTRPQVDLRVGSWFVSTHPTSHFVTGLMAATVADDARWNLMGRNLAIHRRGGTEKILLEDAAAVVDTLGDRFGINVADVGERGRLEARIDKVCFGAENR

SMILES	MIC M. tuberculosis (M. tuberculosis H37Rv)	MMNAT % Inhibition (MMNAT [1]; [9])	IC50 (MMNAT [1]; [10])	Δm of enzyme-inhibitor adduct (MMNAT) (MMNAT [2])	Molar ratio (inhibitor/protein) (MMNAT) (MMNAT [2])	MMNAT kobs (MMNAT [3]; inhibitor at 11.9 µM)	TBNAT % Inhibition (TBNAT [4]; [9])	IC50 (TBNAT [4]; [10])	MIC M. bovis BCG (M. bovis BCG)	MIC (M. tuberculosis H37Rv)	MIC (M. bovis BCG)	inhibition at 50 µM (MMNAT [1]; [9])	inhibition at 50 µM (TBNAT [4]; [9])	also measured
CN1CCC(O)(c2ccc(Cl)cc2)C(C(=O)c2ccc(Cl)cc2)C1 (centres unmarked) [compound 2]	2.7 to 13.7 µM	103±2%	0.16 ± 0.01 µM	164 Da and 164.3 Da	1	110±2 10^−3 min^−1	98±1%	1.6 ± 0.1 µM	17.3 to 34.3 µM	–	–	–	–	–
CN(CCC(=O)c1ccccc1)CCC(=O)c1ccccc1 [compound 5]	3.4 to 16.9 µM	101±2%	0.14 ± 0.02 µM	132 Da and 129.7 Da	1	34±2 10^−3 min^−1	101±2%	1.2 ± 0.1 µM	21.3 to 42.3 µM	–	–	–	–	toxicity compared to the cyclic piperidinol [5]: greater toxicity
O=C(c1ccccc1)C1CN(C2CCCCC2)CCC1(O)c1ccccc1 (centres unmarked) [compound 3]	–	–	–	132 Da and 131.5 Da	1	–	–	4.4 ± 0.1 µM	–	2.8 to 13.8 µM (≈ 1.02 to 5.02 µg/mL)	17.3 to 34.4 µM (≈ 6.29 to 12.5 µg/mL)	–	–	inhibition at 50 µM (MMNAT [1]): 103 ± 1%; MMNAT kobs (MMNAT [3]; inhibitor at 5.9 µM): 573±18 10^−3 min^−1; inhibition at 50 µM (TBNAT [4]): 72 ± 60%
CN1CCC(O)(c2ccccc2)C(C(=O)c2ccccc2)C1 (centres unmarked) [compound 1, (4-hydroxy-1-methyl-4-phenylpiperidin-3-yl)(phenyl)methanone]	–	–	1.3 µM	132 Da and 132.6 Da	1	9±2 10^−3 min^−1	–	7.7 ± 0.9 µM	–	3.4 to 16.9 µM (≈ 1 to 4.99 µg/mL)	21.3 to 42.3 µM (≈ 6.29 to 12.5 µg/mL)	105 ± 1%	101 ± 1%	Molar ratio (inhibitor/protein) (TBNAT) (TBNAT [6]; enzyme-to-inhibitor ratio 1∶15, proposed number of inhibition species bound per protein molecule): 1 and 2; inhibition of eukaryotic NAT (human NAT1) (human NAT1): did not show significant inhibition; inhibition of eukaryotic NAT (hamster NAT2) (hamster NAT2 (shNAT2)): did not show significant inhibition; minimum inhibitory concentration (MIC) against M. tuberculosis (M. tuberculosis; conversion of the µg/mL value): ~17 µM (≈ 5.02 µg/mL); minimum inhibitory concentration (MIC) against M. tuberculosis (M. tuberculosis; reported over 50 years ago): less than 5 µg/mL; restoration of enzyme activity by dialysis (TBNAT) (TBNAT [7]): completely ineffective in restoring the activity; restoration of enzyme activity by dialysis (MMNAT) (MMNAT [8]): completely ineffective in restoring the activity
C=CC(=O)c1ccccc1 [PVK, phenyl vinyl ketone, reference compound]	–	–	–	132 Da	1	–	–	–	–	–	–	–	–	mass difference of enzyme adduct (TBNAT) (TBNAT [6]; ratio not stated): 132; inhibition of the NAT activity (NAT): 100%
CC1(C)CC(N2CCC(O)(c3ccccc3)C(C(=O)c3ccccc3)C2)CC(C)(C)N1 (centres unmarked) [compound 4]	–	–	2.7 ± 0.4 µM	132 Da and 130.5 Da	1	586±115 10^−3 min^−1	–	1.1 ± 0.3 µM	–	2.3 to 11.7 µM (≈ 0.967 to 4.92 µg/mL)	14.8 to 29.3 µM (≈ 6.22 to 12.3 µg/mL)	100 ± 2%	67 ± 4%	–
